Test results from patent US7060722B2, “Proline derivatives and use thereof as drugs” (Mitsubishi Pharma Corporation, priority 2000, dated 2006).
Where a name gives a salt, the structure may show the parent alone.

Assays:
Human plasma DPP-IV = target: T1, Human plasma DPP-IV (Homo sapiens, UniProt P27487); assay: Plasma DPP-IV inhibitory activity, fluorescence assay (human plasma); format: biochemical; details: human plasma (10-fold diluted), Gly-Pro-MCA substrate, room temperature 60 min
T1 construct: from tissue; host or cells: human plasma
Protocol: (§1) The plasma DPP-IV inhibitory activity of human and rat was measured by the fluorescence assay method.
(§2) The inhibitory rate relative to the solvent addition group was calculated and IC50 values were determined by logistic analysis.

Rat plasma DPP-IV = target: T2, Rat plasma DPP-IV (Rattus norvegicus, UniProt P14740); assay: Plasma DPP-IV inhibitory activity, fluorescence assay (rat plasma); format: biochemical; details: rat plasma (10-fold diluted), Gly-Pro-MCA substrate, room temperature 60 min
T2 construct: from tissue; host or cells: rat plasma
Protocol: as §1, §2

T2 sequence (P14740 37-767 limits assumed): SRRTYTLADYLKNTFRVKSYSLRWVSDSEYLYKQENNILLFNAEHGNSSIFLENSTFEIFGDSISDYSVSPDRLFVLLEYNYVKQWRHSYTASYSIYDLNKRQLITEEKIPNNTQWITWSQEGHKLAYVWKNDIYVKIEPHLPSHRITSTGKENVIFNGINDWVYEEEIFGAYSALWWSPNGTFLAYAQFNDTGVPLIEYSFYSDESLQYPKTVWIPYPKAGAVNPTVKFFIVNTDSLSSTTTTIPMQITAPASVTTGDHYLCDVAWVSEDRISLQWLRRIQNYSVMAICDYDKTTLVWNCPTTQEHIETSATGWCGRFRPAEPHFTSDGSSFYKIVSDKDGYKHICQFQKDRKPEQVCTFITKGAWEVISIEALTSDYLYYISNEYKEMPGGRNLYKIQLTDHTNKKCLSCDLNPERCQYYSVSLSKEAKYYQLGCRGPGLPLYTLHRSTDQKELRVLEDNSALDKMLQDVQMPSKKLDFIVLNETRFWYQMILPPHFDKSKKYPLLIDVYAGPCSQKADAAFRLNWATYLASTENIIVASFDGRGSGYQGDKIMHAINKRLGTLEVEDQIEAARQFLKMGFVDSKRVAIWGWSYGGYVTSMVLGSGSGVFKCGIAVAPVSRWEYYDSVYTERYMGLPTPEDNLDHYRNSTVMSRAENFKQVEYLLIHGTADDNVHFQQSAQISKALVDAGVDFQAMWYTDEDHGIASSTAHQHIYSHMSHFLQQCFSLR
T1 sequence (P27487 39-766 limits assumed): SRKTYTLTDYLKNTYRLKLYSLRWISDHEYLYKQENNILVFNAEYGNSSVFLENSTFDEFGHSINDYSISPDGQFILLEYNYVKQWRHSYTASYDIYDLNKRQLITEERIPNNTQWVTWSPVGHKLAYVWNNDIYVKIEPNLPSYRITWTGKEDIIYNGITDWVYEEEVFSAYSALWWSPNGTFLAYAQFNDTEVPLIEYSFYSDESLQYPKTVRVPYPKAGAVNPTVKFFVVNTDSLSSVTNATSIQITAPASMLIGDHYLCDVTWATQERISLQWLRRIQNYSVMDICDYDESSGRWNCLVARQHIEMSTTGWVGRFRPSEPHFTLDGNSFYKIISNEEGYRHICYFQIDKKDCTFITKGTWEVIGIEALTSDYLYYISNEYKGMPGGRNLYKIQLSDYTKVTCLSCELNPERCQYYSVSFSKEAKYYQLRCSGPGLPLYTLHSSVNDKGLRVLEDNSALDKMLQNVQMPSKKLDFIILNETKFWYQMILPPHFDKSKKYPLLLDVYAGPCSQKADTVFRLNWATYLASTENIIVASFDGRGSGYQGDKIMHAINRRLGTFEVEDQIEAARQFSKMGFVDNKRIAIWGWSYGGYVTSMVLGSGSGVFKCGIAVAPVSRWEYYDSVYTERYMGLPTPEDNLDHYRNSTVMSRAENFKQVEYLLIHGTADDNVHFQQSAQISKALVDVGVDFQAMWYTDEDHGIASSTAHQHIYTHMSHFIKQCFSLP

Row | IC50 (Human plasma DPP-IV) [pM] | IC50 (Rat plasma DPP-IV) [pM] | Compound
1 | 1100 | 1900 | O=C([C@@H]1C[C@H](N2CCC(c3nn(CCN4CCOCC4)c(=O)o3)CC2)CN1)N1CCSC1 [Example 296, 3-((2S,4S)-4-{4-[4-(2-morpholinoethyl)-5-oxo-4,5-dihydro-1,3,4-oxadiazol-2-yl]piperidino}-2-pyrrolidinylcarbonyl)-1,3-thiazolidine trihydrochloride]
2 | 3700 | 4200 | O=C([C@@H]1C[C@H](N2CCN(c3ccc([N+](=O)[O-])cn3)CC2)CN1)N1CCCC1 [Example 186, 1-{(2S,4S)-4-[4-(5-nitro-2-pyridyl)-1-piperazinyl]-2-pyrrolidinylcarbonyl}pyrrolidine trihydrochloride]
3 | 610 | 1100 | O=C([C@@H]1C[C@H](N2CCC(c3nc4ccc(F)cc4[nH]3)CC2)CN1)N1CCSC1 [Example 303, 3-{(2S,4S)-4-[4-(5-fluoro-2-benzimidazolyl)piperidino]-2-pyrrolidinylcarbonyl}-1,3-thiazolidine trihydrochloride]
4 | 330 | 340 | O=C([C@@H]1C[C@H](N2CCN(c3nc4ccc(C(F)(F)F)cc4s3)CC2)CN1)N1CCSC1 [Example 242, 3-{(2S,4S)-4-[4-(6-trofluoromethyl-2-benzothiazolyl)-1-piperazinyl]-2-pyrrolidinylcarbonyl}-1,3-thiazolidine dihydrochloride]
5 | 450 | 750 | O=C(O)c1ccc(N2CCN([C@@H]3CN[C@H](C(=O)N4CCSC4)C3)CC2)nc1 [Example 212, 3-{(2S,4S)-4-[4-(5-carboxy-2-pyridyl)-1-piperazinyl]-2-pyrrolidinylcarbonyl}-1,3-thiazolidine trihydrochloride]
6 | 6800 | 9400 | CN(Cc1cccc(C#N)c1)[C@@H]1CN[C@H](C(=O)N2CCSC2)C1 [Example 99, 3-{(2S,4S)-4-[N-(3-cyanophenylmethyl)-N-methylamino]-2-pyrrolidinylcarbonyl}-1,3-thiazolidine dihydrochloride]
7 | 1500 | 2100 | O=C([C@@H]1C[C@H](N2CCC(c3cc4ccccc4s3)CC2)CN1)N1CCSC1 [Example 143, 3-{(2S,4S)-4-[4-(2-benzo[b]thienyl)piperidino]-2-pyrrolidinylcarbonyl}-1,3-thiazolidine dihydrochloride]

Continued, compound first:

Row | Compound | IC50 (Human plasma DPP-IV) [pM] | IC50 (Rat plasma DPP-IV) [pM]
8 | CCOC(=O)CN(CC(=O)OCC)[C@@H]1CN[C@H](C(=O)N2CCC[C@H]2C#N)C1 [Example 39, (S)-2-cyano-1-{(2S,4S)-4-[N,N-bis(ethoxycarbonylmethyl)amino]-2-pyrrolidinylcarbonyl}pyrrolidine dihydrochloride] | 1100 | 550
9 | N#C[C@@H]1CCCN1C(=O)[C@@H]1C[C@H](Nc2ncccn2)CN1 [Example 24, (S)-2-cyano-1-[(2S,4S)-4-(2-pyrimidinyl)amino-2-pyrrolidinylcarbonyl]pyrrolidine hydrochloride] | 510 | 640
10 | N#C[C@@H]1CCCN1C(=O)[C@@H]1C[C@H](NCc2ccc([N+](=O)[O-])cc2)CN1 [Example 29, (S)-2-cyano-1-[(2S,4S)-4-(4-nitrophenylmethyl)amino-2-pyrrolidinylcarbonyl]pyrrolidine dihydrochloride] | 300 | 220
11 | N#C[C@@H]1CCCN1C(=O)[C@@H]1C[C@H](Nc2ccc(C(F)(F)F)cn2)CN1 [Example 20, (S)-2-cyano-1-[(2S,4S)-4-(5-trifluoromethyl-2-pyridyl)amino-2-pyrrolidinylcarbonyl]pyrrolidine 2 trifluoroacetate] | 540 | 410
